Test results: patent publication US10660334B2, “Fused bicyclic heterocycle derivatives as pesticides” (Bayer CropScience Aktiengesellschaft, priority 2016, dated 2020)

Key:
[1] = system: Myzus persicae; test: Myzus persicae spray test; format: in vivo; conditions: foliar, 120 h, spray on Chinese cabbage leaf discs, after 5 days, read-out: efficacy (aphids killed); for pest or weed control at 20 g/ha: application rate 20 g/ha; for pest or weed control at 100 g/ha: application rate 100 g/ha
Procedure: Myzus persicae—Spray Test Solvent: 78 parts by weight of acetone • • 1.5 parts by weight of dimethylformamide Emulsifier: alkylaryl polyglycol ether To produce a suitable active ingredient formulation, 1 part by weight of active ingredient is dissolved with the specified parts by weight of solvent and made up to the desired concentration with water containing an emulsifier concentration of 1000 ppm. To produce further test concentrations, the formulation is diluted with emulsifier-containing water. Discs of Chinese cabbage leaves (Brassica pekinensis) infested by all stages of the green peach aphid (Myzus persicae) are sprayed with an active ingredient formulation of the desired concentration. After 5 days, the efficacy in % is determined. 100% means that all the aphids have been killed; 0% means that no aphids have been killed.

[2] = system: Phaedon cochleariae; test: Phaedon cochleariae spray test; format: in vivo; conditions: spray on Chinese cabbage leaf discs, after 7 days
Procedure: Phaedon cochleariae—Spray Test
Solvent: 78.0 parts by weight of acetone • • 1.5 parts by weight of dimethylformamide
Emulsifier: alkylaryl polyglycol ether
To produce a suitable active ingredient formulation, 1 part by weight of active ingredient is dissolved with the specified parts by weight of solvent and made up to the desired concentration with water containing an emulsifier concentration of 1000 ppm. To produce further test concentrations, the formulation is diluted with emulsifier-containing water.
Discs of Chinese cabbage leaves (Brassica pekinensis) are sprayed with an active ingredient formulation of the desired concentration and, after drying, populated with larvae of the mustard beetle (Phaedon cochleariae).
After 7 days, the efficacy in % is determined. 100% means that all the beetle larvae have been killed; 0% means that no beetle larvae have been killed.

[3] = log P by HPLC on reversed-phase column (EEC Directive 79/831 Annex V.A8), acidic range; format: physicochemical; conditions: reversed-phase C18 HPLC column; HPLC reversed-phase C18, 55° C., pH 2.7, 0.1% aqueous formic acid and acetonitrile; read-out: log P (HCOOH)
Procedure: The log P values are measured according to EEC Directive 79/831 Annex V.A8 by HPLC (high-performance liquid chromatography) on a reversed-phase column (C18). Temperature: 55° C. The LC-MS determination in the acidic range is effected at pH 2.7 with 0.1% aqueous formic acid and acetonitrile (containing 0.1% formic acid) as eluents; linear gradient from 10% acetonitrile to 95% acetonitrile. Called log P (HCOOH) in the table.

[4] = system: Myzus persicae; test: Myzus persicae oral test; format: in vivo; conditions: 120 h, application rate 4 ppm, after 5 days, read-out: efficacy (aphids killed)
Procedure: Myzus persicae—Oral Test Solvent: 100 parts by weight of acetone To produce a suitable active ingredient formulation, 1 part by weight of active ingredient is dissolved with the stated parts by weight of solvent and made up to the desired concentration with water. 50 μl of the active ingredient preparation are transferred into microtitre plates and made up to a final volume of 200 μl with 150 μl of IPL41 insect medium (33%+15% sugar). Subsequently, the plates are sealed with parafilm, which a mixed population of green peach aphids (Myzus persicae) within a second microtitre plate is able to puncture and imbibe the solution. After 5 days, the efficacy in % is determined. 100% means that all the aphids have been killed; 0% means that no aphids have been killed.

[5] = system: Lucilia cuprina; test: Lucilia cuprina test; format: in vivo; conditions: application rate 100 ppm, L1 larvae, after 2 days
Procedure: Lucilia cuprina Test Solvent: dimethyl sulfoxide To produce a suitable active ingredient formulation, 10 mg of active ingredient are mixed with 0.5 ml of dimethyl sulfoxide, and the concentrate is diluted with water to the desired concentration. About 20 L1 larvae of the Australian sheep blowfly (Lucilia cuprina) are transferred into a test vessel containing minced horsemeat and the active ingredient formulation of the desired concentration. After 2 days, the kill in % is determined. 100% means that all the larvae have been killed; 0% means that no larvae have been killed.

[6] = system: Musca domestica; test: Musca domestica test; format: in vivo; conditions: application rate 100 ppm, adult houseflies, after 2 days
Procedure: Musca domestica Test Solvent: dimethyl sulfoxide To produce a suitable active ingredient formulation, 10 mg of active ingredient are mixed with 0.5 ml of dimethyl sulfoxide, and the concentrate is diluted with water to the desired concentration. Vessels containing a sponge treated with sugar solution and the active ingredient formulation of the desired concentration are populated with 10 adult houseflies (Musca domestica). After 2 days, the kill in % is determined. 100% means that all of the flies have been killed; 0% means that none of the flies have been killed.

Row | SMILES | pest or weed control at 20 g/ha [1] | pest or weed control at 100 g/ha [1] | chromatographic logP [3] | pest or weed control at 4 ppm [4] | further results
1 | CCS(=O)(=O)c1c(-c2nc3cc(C(F)(F)F)ncc3n2C)nc2n1CCCC2 [Example I-002, 2-(3-Ethylsulfonyl-5,6,7,8-tetrahydroimidazo[1,2-a]pyridin-2-yl)-3-methyl-6-(trifluoromethyl)imidazo[4,5-c]pyridine] | 90% | 90% | 1.97 | – | pest or weed control at 500 g/ha ([1]; application rate 500 g/ha): 90%; efficacy (beetle larvae killed) ([2]; application rate 500 g/ha): 83%
2 | CCS(=O)(=O)c1c(-c2nc3cc(C(F)(F)F)ncc3n2C)nc2n1CCCC2C(F)(F)F (stereo not drawn) [Example I-004] | – | – | – | 100% | –
3 | CCS(=O)(=O)c1c(-c2nc3cc(C(F)(F)F)ncc3n2C)nc2n1CCCC2(O)C(F)(F)F (stereo not drawn) [Example I-006] | – | – | – | 100% | –
4 | Cn1c(-c2nc3n(c2S(C)(=O)=O)CCCC3)nc2cc(C(F)(F)F)cnc21 [Example I-014] | – | 90% | – | 100% | efficacy (kill) [5]: 100%; efficacy (kill) [6]: 100%
5 | CCS(=O)(=O)c1c(-c2nc3cc(C(F)(F)F)ccc3n2C)nc2n1CCCC2 [Example I-015] | 90% | 90% | – | 100% | efficacy (kill) [5]: 100%; efficacy (kill) [6]: 90%; efficacy (beetle larvae killed) ([2]; application rate 100 g/ha): 83%
6 | Cn1c(-c2nc3n(c2S(C)(=O)=O)CCCC3)nc2cc(C(F)(F)F)ccc21 [Example I-016] | – | – | – | 100% | –
7 | Cn1c(-c2nc3n(c2S(C)(=O)=O)CCCC3)nc2cc(C(F)(F)F)cnc21 [Example I-018] | 90% | – | – | – | –
8 | CCS(=O)(=O)c1c(-c2nc3cc(C(F)(F)F)nc(C(C)C)c3n2C)nc2n1CCCC2 [Example I-019] | 90% | 90% | – | 100% | –
9 | CCS(=O)(=O)c1c(-c2nc3cc(SC(F)(F)F)cnc3n2C)nc2n1CCCC2 [Example I-020] | 90% | 90% | – | 100% | efficacy (beetle larvae killed) ([2]; application rate 100 g/ha): 100%
10 | CCS(=O)(=O)c1c(-c2nc3cc(S(=O)(=O)C(F)(F)F)cnc3n2C)nc2n1CCCC2 [Example I-021] | 90% | 100% | – | 100% | efficacy (beetle larvae killed) ([2]; application rate 100 g/ha): 100%
11 | CCS(=O)(=O)c1c(-c2nc3cc([S+]([O-])C(F)(F)F)cnc3n2C)nc2n1CCCC2 (stereo not drawn) [Example I-022] | 90% | – | – | 100% | –
12 | Cn1c(-c2nc3n(c2S(C)(=O)=O)CCCC3)nc2cc(SC(F)(F)F)cnc21 [Example I-023] | 90% | 90% | – | 100% | –
13 | CCS(=O)(=O)c1c(-c2nc3cc(C(F)(F)F)ncc3n2C)nc2n1CCCC2O (stereo not drawn) [Example I-024, 3-Ethylsulfonyl-2-[3-methyl-6-(trifluoromethyl)imidazo[4,5-c]pyridin-2-yl]-5,6,7,8-tetrahydro-imidazo[1,2-a]pyridin-8-ol] | – | 90% | 1.6 | 100% | –
14 | CCS(=O)(=O)c1c(-c2nc3cc(C(F)(F)F)nc(C(F)F)c3n2C)nc2n1CCCC2 [Example I-025, 4-(Difluoromethyl)-2-[3-(ethylsulfonyl)-5,6,7,8-tetrahydroimidazo[1,2-a]pyridin-2-yl]-3-methyl-6-(trifluoromethyl)-3H-imidazo[4,5-c]pyridine] | – | – | 2.8 | 100% | –
15 | CCS(=O)(=O)c1c(-c2nc3cc(C(F)(F)F)ncc3n2C)nc2n1CCCC2F (stereo not drawn) [Example I-026, 2-[3-(Ethylsulfonyl)-8-fluoro-5,6,7,8-tetrahydroimidazo[1,2-a]pyridin-2-yl]-3-methyl-6-(trifluoromethyl)-3H-imidazo[4,5-c]pyridine] | – | – | 2.11 | – | –
16 | CCS(=O)(=O)c1c(-c2nc3cc(C(F)(F)F)ncc3n2C)nc2n1CCC(C)(C)C2 [Example I-031, 2-(3-Ethysulfonyl-7,7-dimethyl-6,8-dihydro-5H-imidazo[1,2-a]pyridin-2-yl)-3-methyl-6-(trifluoromethyl)imidazo[4,5-c]pyridine] | – | – | 2.51 | – | –
17 | CCS(=O)(=O)c1c(-c2nc3cc(C(F)(F)C(F)(F)F)ncc3n2C)nc2n1CCC(C)C2 (stereo not drawn) [Example I-034, 2-(3-Ethylsulfonyl-7-methyl-5,6,7,8-tetrahydroimidazo[1,2-a]pyridin-2-yl)-3-methyl-6-(1,1,2,2,2-pentafluoroethyl)imidazo[4,5-c]pyridine] | – | – | 2.8 | – | –
18 | CCS(=O)(=O)c1c(-c2nc3cc(C(F)(F)F)nc(C)c3n2C)nc2n1CCCC2 [Example I-039, 2-(3-Ethylsulfonyl-5,6,7,8-tetrahydroimidazo[1,2-a]pyridin-2-yl)-3,4-dimethyl-6-(trifluoromethyl)imidazo[4,5-c]pyridine] | – | – | 2.1 | – | –
19 | CCc1nc(C(F)(F)F)cc2nc(-c3nc4n(c3S(=O)(=O)CC)CCCC4)n(C)c12 [Example I-040, 4-Ethyl-2-(3-ethylsulfonyl-5,6,7,8-tetrahydroimidazo[1,2-a]pyridin-2-yl)-3-methyl-6-(trifluoromethyl)imidazo[4,5-c]pyridine] | – | – | 2.51 | – | –
20 | CCS(=O)(=O)c1c(-c2nc3cc(C(F)(F)F)ncc3n2C)nc2n1CCCC2C (stereo not drawn) [Example I-043, 2-(3-Ethylsulfonyl-8-methyl-5,6,7,8-tetrahydroimidazo[1,2-a]pyridin-2-yl)-3-methyl-6-(trifluoromethyl)imidazo[4,5-c]pyridine] | – | – | 2.31 | – | –
21 | Cn1c(-c2nc3n(c2Cl)CCCC3)nc2cc(C(F)(F)F)ncc21 [Example V-001, 2-(3-Chloro-5,6,7,8-tetrahydroimidazo[1,2-a]pyridin-2-yl)-3-methyl-6-(trifluoromethyl)imidazo[4,5-c]pyridine] | – | – | 2.26 | – | –
22 | CC1CCn2c(nc(-c3nc4cc(C(F)(F)C(F)(F)F)ncc4n3C)c2Br)C1 (stereo not drawn) [Example V-002, 2-(3-Bromo-7-methyl-5,6,7,8-tetrahydroimidazo[1,2-a]pyridin-2-yl)-3-methyl-6-(1,1,2,2,2-pentafluoroethyl)imidazo[4,5-c]pyridine] | – | – | 3.39 | – | –
23 | Cn1c(-c2nc3n(c2Br)CCC(C)(C)C3)nc2cc(C(F)(F)F)ncc21 [Example V-003, 2-(3-Bromo-7,7-dimethyl-6,8-dihydro-5H-imidazo[1,2-a]pyridin-2-yl)-3-methyl-6-(trifluoromethyl)imidazo[4,5-c]pyridine] | – | – | 3.03 | – | –
24 | CC1CCn2c(nc(C(=O)O)c2Br)C1 (stereo not drawn) [III-001, 3-Bromo-7-methyl-5,6,7,8-tetrahydroimidazo[1,2-a]pyridine-2-carboxylic acid] | – | – | 0.27 | – | –
25 | CC1(C)CCn2c(nc(C(=O)O)c2Br)C1 [III-002, 3-Bromo-7,7-dimethyl-6,8-dihydro-5H-imidazo[1,2-a]pyridine-2-carboxylic acid] | – | – | 0.67 | – | –
